In patent US20250162973A1, “METHODS OF SYNTHESIS AND USES OF AGRIMOL COMPOUNDS” (Versitech Limited, priority 2022, published 2025):

What was measured:
CS = target: T1, CS (Homo sapiens, UniProt O75390); assay: CS catalytic activity; format: biochemical; details: dose-dependent
T1 sequence (O75390 28-466): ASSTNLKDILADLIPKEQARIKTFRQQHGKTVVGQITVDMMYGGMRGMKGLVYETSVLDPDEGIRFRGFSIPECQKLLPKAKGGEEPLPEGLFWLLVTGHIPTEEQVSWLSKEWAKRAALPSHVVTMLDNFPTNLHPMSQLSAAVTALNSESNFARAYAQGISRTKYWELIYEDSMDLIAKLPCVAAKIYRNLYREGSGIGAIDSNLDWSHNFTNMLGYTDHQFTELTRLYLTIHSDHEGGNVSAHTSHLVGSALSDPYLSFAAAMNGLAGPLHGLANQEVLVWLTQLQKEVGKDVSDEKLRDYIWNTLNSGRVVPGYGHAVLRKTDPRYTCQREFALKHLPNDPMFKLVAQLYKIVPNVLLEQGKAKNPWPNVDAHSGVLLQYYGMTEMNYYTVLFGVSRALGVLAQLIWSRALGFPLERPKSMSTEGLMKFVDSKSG
Description: CS is localized within the mitochondrial matrix and is the key enzyme in the first step of the tricarboxylic acid (TCA) cycle that catalyzes the reaction between acetyl coenzyme A (acetyl CoA) and oxaloacetic acid to form citric acid. […] CS is responsible for the production of citrate in the TCA cycle that mediates mitochondrial aerobic respiration to affect the production of ATP production. Targeting at CS may be feasible to restore the abnormal expression of TCA cycle.

NCI-H460 xenograft = assay: Human tumor xenograft model; format: in vivo, BALB/c nude mice; details: AGB 3 mg/kg, tail intravenous injection
Method: In vivo anticancer efficacy of AGB was evaluated using the human tumor xenograft model, in which human cancer cells were inoculated into immune-deficiency mice. Briefly, twelve six-week-old (16-18 g) BALB/c nude mice were randomly divided into two groups and both received subcutaneous injection of NCI-H460 cells (2 million cells in 0.1 mL PBS) at its right flank of mice and tumor became palpable after three days of injection. Mice were received intravenous (i.v.) injections of AGB or vehicle control (10% DMSO and 0.05% Tween 80 in normal saline) every two days in two weeks. The length and width of tumor were measured by Vernier caliper and the body weight was monitored every two or three days. At the end of experiment, mice were sacrificed and decapitated. The liver, kidney, and tumor were collected and fixed in 4% formaldehyde for further haematoxylin and eosin (H&E) staining. All animal experiments in this project received human care and study protocols complied with the guidelines of the Laboratory Animal Services Centre of the University of Hong Kong. Tumor sizes and body weight were recorded before the drug injection every time and tumor volume (V) was calculated by the formula V=LW^2/2, where L is tumor length and W is tumor width. […]
The in vivo antitumor potential of AGB using the xenograft mouse model was assessed. […]

[1] = Maximum tolerated dose (MTD) determination, general toxicity and body weight; format: in vivo
Method: The MTD test in this study was done in collaboration with Tianjin Institute of Pharmaceutical Research (TIPR). […] A total of 80 mice were randomly assigned into four groups (10 male and 10 female mice in each group) in this study. Four groups included 16.0 mg/kg of AGB group, 12.8 mg/kg of AGB group, vehicle control group (10% DMSO+0.8% Tween-80 in normal saline), and the blank control group (normal saline).
Then, the body weights of surviving animals were measured on the 1st, 3rd, 7th and 14th days, respectively. At the end of experiment, the hematology, blood biochemistry, anatomical examination, and histopathology examination were performed in both vehicle control group and the MTD group (12.8 mg/kg). The data were presented as the mean±standard deviation.

[2] = 16.0 mg/kg, about 1 hour after administration

CCCC(=O)c1c(O)c(Cc2c(O)c(Cc3c(O)c(C)c(OC)c(C(=O)CCC)c3O)c(O)c(C(=O)[C@@H](C)CC)c2O)c(O)c(C)c1OC [AGB, Agrimol B]
AGB concentration at which a significant decrease in the enzyme activity was observed (CS): 5 µM
tumor growth inhibition rate (NCI-H460 xenograft): 57%
body weight of female mice ([1]; 12.8 mg/kg, d 0, mean ± SD): 20.52 ± 1.00 g
body weight of male mice ([1]; 12.8 mg/kg, d 0, mean ± SD): 21.16 ± 1.07 g
body weight of female mice ([1]; 12.8 mg/kg, d 1, mean ± SD): 20.60 ± 1.18 g
body weight of male mice ([1]; 12.8 mg/kg, d 1, mean ± SD): 21.27 ± 1.46 g
body weight of female mice ([1]; 12.8 mg/kg, d 3, mean ± SD): 21.14 ± 0.99 g
body weight of male mice ([1]; 12.8 mg/kg, d 3, mean ± SD): 21.89 ± 1.51 g
body weight of female mice ([1]; 12.8 mg/kg, d 7, mean ± SD): 23.68 ± 1.83 g
body weight of male mice ([1]; 12.8 mg/kg, d 7, mean ± SD): 25.64 ± 1.54 g
body weight of female mice ([1]; 12.8 mg/kg, d 14, mean ± SD): 26.38 ± 1.63 g
body weight of male mice ([1]; 12.8 mg/kg, d 14, mean ± SD): 31.60 ± 2.37 g
symptoms of toxic reactions ([1]; 12.8 mg/kg, day of dosing and recovery period): No symptoms of toxic reactions were observed
animals with reduced activities ([1]; 16.0 mg/kg, about 30 minutes after administration): 13/20
mice appearing prone [1, 2]: 3/20
mice with ptosis [1, 2]: 1/20
body weight of female mice ([1]; 16.0 mg/kg, d 0, mean ± SD): 20.57 ± 0.90 g
body weight of male mice ([1]; 16.0 mg/kg, d 0, mean ± SD): 21.24 ± 0.58 g
body weight of female mice ([1]; 16.0 mg/kg, d 1, mean ± SD): 18.76 ± 0.89 g
body weight of male mice ([1]; 16.0 mg/kg, d 1, mean ± SD): 19.64 ± 1.15 g
body weight of female mice ([1]; 16.0 mg/kg, d 3, mean ± SD): 19.61 ± 1.50 g
body weight of male mice ([1]; 16.0 mg/kg, d 3, mean ± SD): 20.04 ± 1.42 g
body weight of female mice ([1]; 16.0 mg/kg, d 7, mean ± SD): 22.76 ± 1.26 g
body weight of male mice ([1]; 16.0 mg/kg, d 7, mean ± SD): 24.25 ± 1.48 g
body weight of female mice ([1]; 16.0 mg/kg, d 14, mean ± SD): 25.61 ± 0.87 g
body weight of male mice ([1]; 16.0 mg/kg, d 14, mean ± SD): 31.48 ± 1.73 g
MTD at 14 day ([1]; both sexes, mouse, in vivo, iv, single i.v. injection, ICR mice): 12.8 mg/kg
